In BindingDB's records for doi:10.1021/jm100978n (Pfizer, 2011):

Assay: Antagonist activity at CCR5 receptor expressed in HeLa-P4 cells co-expressing CD4 assessed as inhibition of infusion to HIV gp120 expressed in CHO-tat10 cells after 20 hrs by cell-cell fusion assay

| Compound | IC50 [pM] |
| --- | --- |
| CC(=O)N[C@@H](CCN1[C@@H]2CC[C@H]1C[C@@H](n1c(C)nc3c1CNCC3)C2)c1ccccc1 [endo-N-((S)-3-(3-(2-methyl-4,5,6,7-tetrahydro-3H-imidazo[4,5-c]pyridin-3-yl)-8-azabicyclo[3.2.1]octan-8-yl)-1-phenylpropyl)acetamide] | 9000 |
| COC(=O)N[C@@H](CCN1[C@@H]2CC[C@H]1C[C@@H](n1c(C)nc3c1CN(C(=O)OC)CC3)C2)c1cccc(F)c1 [endo-methyl 3-(8-((S)-3-(3-fluorophenyl)-3-(methoxycarbonylamino)propyl)-8-azabicyclo[3.2.1]octan-3-yl)-2-methyl-6,7-dihydro-3H-imidazo[4,5-c]pyridine-5(4H)-carboxylate] | 200 |
| COC(=O)N[C@@H](CCN1[C@@H]2CC[C@H]1C[C@@H](n1c(C)nc3c1CN(C(C)=O)CC3)C2)c1cccc(F)c1 [endo-methyl(S)-3-(3-(5-acetyl-2-methyl-4,5,6,7-tetrahydro-3H-imidazo[4,5-c]pyridin-3-yl)-8-azabicyclo[3.2.1]octan-8-yl)-1-(3-fluorophenyl)propylcarbamate] | 200 |
| COC(=O)N1CCc2nc(C)n([C@H]3C[C@H]4CC[C@@H](C3)N4CC[C@H](NC(C)=O)c3cccc(F)c3)c2C1 [endo-methyl 3-(8-((S)-3-acetamido-3-(3-fluorophenyl)propyl)-8-azabicyclo[3.2.1]octan-3-yl)-2-methyl-6,7-dihydro-3H-imidazo[4,5-c]pyridine-5(4H)-carboxylate] | 100 |
| CC(=O)N[C@@H](CCN1[C@@H]2CC[C@H]1C[C@@H](n1c(C)nc3c1CN(C)CC3)C2)c1ccccc1 [endo-N-((S)-3-(3-(2,5-dimethyl-4,5,6,7-tetrahydro-3H-imidazo[4,5-c]pyridin-3-yl)-8-azabicyclo[3.2.1]octan-8-yl)-1-phenylpropyl)acetamide] | 5000 |
| COC(=O)N[C@@H](CCN1[C@@H]2CC[C@H]1C[C@@H](n1c(C)nc3c1CN(C(C)=O)CC3)C2)c1ccccc1 [endo-methyl(S)-3-(3-(5-acetyl-2-methyl-4,5,6,7-tetrahydro-3H-imidazo[4,5-c]pyridin-3-yl)-8-azabicyclo[3.2.1]octan-8-yl)-1-phenylpropylcarbamate] | 600 |
| CC(=O)N[C@@H](CCN1[C@@H]2CC[C@H]1C[C@@H](n1c(C)nc3c1CN(C(=O)C(C)C)CC3)C2)c1ccccc1 [endo-N-((S)-3-(3-(5-isobutyryl-2-methyl-4,5,6,7-tetrahydro-3H-imidazo[4,5-c]pyridin-3-yl)-8-azabicyclo[3.2.1]octan-8-yl)-1-phenylpropyl)acetamide] | 400 |
| CCC(=O)N1CCc2nc(C)n([C@H]3C[C@H]4CC[C@@H](C3)N4CC[C@H](NC(C)=O)c3ccccc3)c2C1 [endo-N-((S)-3-(3-(2-methyl-5-propionyl-4,5,6,7-tetrahydro-3H-imidazo[4,5-c]pyridin-3-yl)-8-azabicyclo[3.2.1]octan-8-yl)-1-phenylpropyl)acetamide] | 400 |
| CC(=O)N[C@@H](CCN1[C@@H]2CC[C@H]1C[C@@H](n1c(C)nc3c1CN(C(C)=O)CC3)C2)c1ccccc1 [endo-N-((S)-3-(3-(5-acetyl-2-methyl-4,5,6,7-tetrahydro-3H-imidazo[4,5-c]pyridin-3-yl)-8-azabicyclo[3.2.1]octan-8-yl)-1-phenylpropyl)acetamide] | 400 |
| Cc1nc(C(C)C)n([C@H]2C[C@H]3CC[C@@H](C2)N3CC[C@H](NC(=O)C2CCC(F)(F)CC2)c2ccccc2)n1 [endo-4,4-difluoro-N-((S)-3-(3-(5-isopropyl-3-methyl-1H-1,2,4-triazol-1-yl)-8-azabicyclo[3.2.1]octan-8-yl)-1-phenylpropyl)cyclohexanecarboxamide] | 1400 |
| CC(=O)N[C@@H](CCN1[C@@H]2CC[C@H]1C[C@@H](n1c(C)nc3c1CN(Cc1ccccc1)CC3)C2)c1ccccc1 [endo-N-((S)-3-(3-(5-benzyl-2-methyl-4,5,6,7-tetrahydro-3H-imidazo[4,5-c]pyridin-3-yl)-8-azabicyclo[3.2.1]octan-8-yl)-1-phenylpropyl)acetamide] | 29000 |
| CC(=O)N[C@@H](CCN1[C@@H]2CC[C@H]1C[C@@H](n1c(C)nc3c1CN(C(C)C)CC3)C2)c1ccccc1 [endo-N-((S)-3-(3-(5-isopropyl-2-methyl-4,5,6,7-tetrahydro-3H-imidazo[4,5-c]pyridin-3-yl)-8-azabicyclo[3.2.1]octan-8-yl)-1-phenylpropyl)acetamide] | 3000 |
| COC(=O)N1CCc2nc(C)n([C@H]3C[C@H]4CC[C@@H](C3)N4CC[C@H](NC(C)=O)c3ccccc3)c2C1 [endo-methyl 3-(8-((S)-3-acetamido-3-phenylpropyl)-8-azabicyclo[3.2.1]octan-3-yl)-2-methyl-6,7-dihydro-3H-imidazo[4,5-c]pyridine-5(4H)-carboxylate] | 300 |
| CC(=O)N[C@@H](CCN1[C@@H]2CC[C@H]1C[C@@H](n1c(C)nc3c1CN(S(C)(=O)=O)CC3)C2)c1ccccc1 [endo-N-((S)-3-(3-(2-methyl-5-(methylsulfonyl)-4,5,6,7-tetrahydro-3H-imidazo[4,5-c]pyridin-3-yl)-8-azabicyclo[3.2.1]octan-8-yl)-1-phenylpropyl)acetamide] | 2000 |
| CC(=O)N[C@@H](CCN1[C@@H]2CC[C@H]1C[C@@H](n1c(C)nc3ccccc31)C2)c1ccccc1 [endo-N-((S)-3-(3-(2-methyl-1H-benzo[d]imidazol-1-yl)-8-azabicyclo[3.2.1]octan-8-yl)-1-phenylpropyl)acetamide] | 500 |
